Laboratory results published in US10738028B2, “Spiro three-membered ring, spiro five-membered ring peptide deformylase inhibitor and use thereof in antibacteria and anti-tumor” (priority 2016, dated 2020).
Converted amounts (≈) assume the structure as drawn.

Assays:
[1] = system: Enterococcus faecalis (EFA); test: MIC, two-fold agar dilution (CLSI), clinical isolates; format: cell-based
Outline: (§1)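 MIC values come from two-fold agar dilution run per CLSI antimicrobial susceptibility testing procedure.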

[2] = system: Escherichia coli (including ESBLs, non-ESBLs); test: as above; format: cell-based
Outline: as §1

[3] = system: methicillin-resistant Staphylococcus aureus (MRSA); test: as above; format: cell-based
Outline: as §1

[4] = system: methicillin-resistant Staphylococcus epidermidis (MRSE); test: as above; format: cell-based
Outline: as §1

[5] = system: methicillin-sensitive Staphylococcus aureus (MSSA); test: as above; format: cell-based
Outline: as §1

[6] = system: methicillin-sensitive Staphylococcus epidermidis (MSSE); test: as above; format: cell-based
Outline: as §1

[7] = system: HCT-116 colorectal cancer cell line; test: CCK-8 proliferation inhibition; format: cell-based; settings: Homo sapiens, HCT-116, 72 h, read-out: HCT116 inhibition rate/%
Outline: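 HCT-116 cells, seeded at 2000 cells/well in McCoy's 5A with 10% newborn bovine serum, were cultured overnight at 37° C., 5% CO2, then exposed to compound dilutions in medium for 72 hours. Viability was read with 1:10 diluted CCK-8; controls received 1‰ DMSO.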

[8] = system: methemoglobin in blood samples of three healthy volunteers; test: Toxicity on methemoglobin in vitro (whole blood with S9 and NADPH, absorbance at 630 nm); format: cell-based, human; settings: 500 μM compound; whole blood + S9 + NADPH; 5 hours at 37° C.
Description: Because PDF inhibitors such as LBM415 and GSK1322322 can produce active species such as aromatic hydroxylamine and aromatic hydrazines in metabolic process, and cause human methemoglobinemia. To this end, continuous wavelength method was adopted in this invention to scan the absorption spectrum of blood samples in the wavelength range of 500 to 700 nm in the ultraviolet-visible spectrophotometer, and the contents of methemoglobin in blood samples of three healthy volunteers were calculated, after being effected by the synthesized compounds.
Experimental materials: Nicotinamide adenine dinucleotide phosphate (NADPH) reduction system: glucose-6-disodium phosphate, nicotinamide adenine dinucleoside phosphate and glucose-6-phosphate dehydrogenase (purchased from Shanghai yuanye Bio-Technology Co., Ltd) were added to 1 mL of phosphate buffer solution (PBS, pH 7.4), and the mixture was shaked in a shaker type water bath at 37° C. for 10 min, and then cooled to 0° C. Mixed human hepatocytes fraction S9 was purchased from Xenotech (20 mg S9 protein/1 mL suspension medium). Compounds were prepared to stock solution at a concentration of 50 mM, which was stored at −20° C. for use. Dapsone was used as positive control experimental reagent, which was purchased from Sigma Aldrich. 1% w/v triton X-100 was self-prepared. Blood samples were collected using Vacutainer tubes containing EDTA anticoagulants (BD, Franklin Lakes, USA), which were sampled from three healthy volunteers and used immediately after sampling.
Preparation of incubation system for blood samples and drugs: 250 μL of incubation system was consist of 220 μL of whole blood, 25 μL of S9 (final concentration: 2 mg S9 protein/mL incubation solution), 2.5 μL of NADPH form system (final concentration: 10 mM G-6-P, 1 mM NADP, 7.5 Units/mL) and 2.5 μL of stock solution of a compound (final concentration 500 μM). […] of incubation system was placed in an Eppendorf tube and incubated for 5 hours at 37° C. in water bath.
Determination of the content of methemoglobin: 60 μL of an incubated sample was taken and lysed with 3.0 mL of 1% Triton X-100. The content of methemoglobin (MetHb) was measured by an ultraviolet-visible spectrophotometer, with the Triton X-100 solution used as blank control. A sample was placed in a cuvette, 1 minute later, the spectrums of the sample in the wavelength range from 500 nm to 700 nm were recorded. The sample was added with 2 mg of potassium ferricyanide, and was allowed to stay stationary for 2 minutes for completely oxidization of ferrous iron in the sample, and standard spectrum of methemoglobin with saturated potassium ferricyanide. The percentage of methemoglobin formation (MetHb %) was obtained by the ratio of absorbance at 630 nm. MetHb %=(A′−AB′)/AM′, wherein, A′ was the total absorbance of the sample at 630 nm, AB′ was the base absorbance of the reduced blood in the sample at 630 nm, and AM′ was the absorbance of oxidized blood with saturated potassium ferricyanide at 630 nm.

the test strains = test: MIC against the test strains (strain not given); format: cell-based; settings: read-out: MIC (azole amide bioisosteres)
Text: 1. The invention adopts the two-fold agar dilution method recommended by the operating procedure of antimicrobial susceptibility testing set by American Clinical and Laboratory Standards Institute (CLSI) to determine the Minimum Inhibitory Concentration (MIC) of the test samples against the tested strains.

Structure (SMILES): CCCC[C@H](CN(O)C=O)C(=O)N1CC2(CC2)C[C@H]1c1nc2ccccc2[nH]1 [Example 10, N—((R)-2-((S)-6-(1H-benzimidazol-2-yl)-5-azaspiro[2.4]heptane-5-carbonyl)hexyl)-N-hydroxyformamide]
- MIC (anti-bacterial activity) ([1]; strain EFA 14-1): 8 mg/L (≈ 20.8 µM)
- MIC (anti-bacterial activity) ([1]; strain EFA 14-2): 8 mg/L (≈ 20.8 µM)
- MIC (anti-bacterial activity) ([1]; strain EFA 14-3): 8 mg/L (≈ 20.8 µM)
- MIC (anti-bacterial activity) ([1]; strain EFA 14-5): 64 mg/L (≈ 166 µM)
- MIC (anti-bacterial activity) ([2]; strain ECO+ 14-1): 0.5 mg/L (≈ 1.3 µM)
- MIC (anti-bacterial activity) ([2]; strain ECO+ 14-2): 32 mg/L (≈ 83.2 µM)
- MIC (anti-bacterial activity) ([2]; strain ECO− 14-1): 32 mg/L (≈ 83.2 µM)
- MIC (anti-bacterial activity) ([2]; strain ECO− 14-2): 32 mg/L (≈ 83.2 µM)
- MIC (anti-bacterial activity) ([3]; strain MRSA 14-1): 1 mg/L (≈ 2.6 µM)
- MIC (anti-bacterial activity) ([3]; strain MRSA 14-2): 2 mg/L (≈ 5.2 µM)
- MIC (anti-bacterial activity) ([3]; strain MRSA 14-4): 2 mg/L (≈ 5.2 µM)
- MIC (anti-bacterial activity) ([3]; strain MRSA 14-5): 0.5 mg/L (≈ 1.3 µM)
- MIC (anti-bacterial activity) ([3]; strain printed MRSA 14-1 (second line of that name, r23, before MRSE 14-2)): 1 mg/L (≈ 2.6 µM)
- MIC (anti-bacterial activity) ([4]; strain MRSE 14-2): 1 mg/L (≈ 2.6 µM)
- MIC (anti-bacterial activity) ([4]; strain MRSE 14-3): 0.5 mg/L (≈ 1.3 µM)
- MIC (anti-bacterial activity) ([4]; strain MRSE 14-4): 1 mg/L (≈ 2.6 µM)
- MIC (anti-bacterial activity) ([5]; strain MSSA 14-1): 2 mg/L (≈ 5.2 µM)
- MIC (anti-bacterial activity) ([5]; strain MSSA 14-2): 2 mg/L (≈ 5.2 µM)
- MIC (anti-bacterial activity) ([5]; strain MSSA 14-3): 2 mg/L (≈ 5.2 µM)
- MIC (anti-bacterial activity) ([5]; strain MSSA 14-4): 2 mg/L (≈ 5.2 µM)
- MIC (anti-bacterial activity) ([6]; strain MSSE 14-1): 0.5 mg/L (≈ 1.3 µM)
- MIC (anti-bacterial activity) ([6]; strain MSSE 14-2): 2 mg/L (≈ 5.2 µM)
- MIC (anti-bacterial activity) ([6]; strain MSSE 14-3): 0.5 mg/L (≈ 1.3 µM)
- MIC (anti-bacterial activity) ([6]; strain MSSE 14-4): 2 mg/L (≈ 5.2 µM)
- inhibition at 30 µM [7]: 10%
- MetHb % (n = 3) [8]: 1.12 ± 0.01%
- MIC (the test strains): 0.5 to 2 mg/L (≈ 1.3 to 5.2 µM)
